PMC2180961 (The Journal of Experimental Medicine, 1977)
Blank lines part the entries; values can stand above or below the molecule they belong to.

How the values were obtained:
rat mast cell chymase [1] = target: T1, rat mast cell chymase (Rattus norvegicus, UniProt P09650); test: […]-casein proteolysis assay; assay type: biochemical
T1 sequence (P09650 21-260): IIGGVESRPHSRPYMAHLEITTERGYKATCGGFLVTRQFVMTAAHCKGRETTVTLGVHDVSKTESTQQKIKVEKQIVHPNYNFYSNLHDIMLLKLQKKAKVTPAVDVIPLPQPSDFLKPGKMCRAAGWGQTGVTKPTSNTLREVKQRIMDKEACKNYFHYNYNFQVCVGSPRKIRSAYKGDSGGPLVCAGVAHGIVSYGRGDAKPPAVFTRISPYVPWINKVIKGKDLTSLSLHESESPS

rat mast cell chymase [2] = target: T1, rat mast cell chymase; test: […]-casein proteolysis assay; assay type: biochemical; settings: read-out: % inhibition at 300 mM
[3] = tested on: CCOC(=O)[C@H](Cc1ccc(O)cc1)NC(=O)c1ccccc1; test: purified protein; settings: 25 C, same experiment as chymase, unit M not printed beside this value
purified protein = substrate: CCOC(=O)[C@H](Cc1ccc(O)cc1)NC(=O)c1ccccc1; test: purified protein; assay type: biochemical, Rattus norvegicus; settings: 25 C, abstract and summary print 1.5 x 10^-3 M (apparent Km)

Molecule: NCCc1c[nH]c2ccc(O)cc12 [5-HT]
IC50 (rat mast cell chymase [1]): 3 mM

inhibition at 300000 µM (rat mast cell chymase [2]): 20%
Molecule: NCCc1c[nH]cn1 [histamine]

Molecule: alpha-chymotrypsin (Bos taurus)
Km [3]: 1170 µM

B1: rat mast cell chymase (Rattus norvegicus) (protein)
chain: IIGGVESRPHSRPYMAHLEITTERGYKATCGGFLVTRQFVMTAAHCKGRETTVTLGVHDVSKTESTQQKIKVEKQIVHPNYNFYSNLHDIMLLKLQKKAKVTPAVDVIPLPQPSDFLKPGKMCRAAGWGQTGVTKPTSNTLREVKQRIMDKEACKNYFHYNYNFQVCVGSPRKIRSAYKGDSGGPLVCAGVAHGIVSYGRGDAKPPAVFTRISPYVPWINKVIKGKDLTSLSLHESESPS
Km (purified protein): 1560 µM
